Assay results reported in publication PMC6920847, “2-Hydroxy-N-phenylbenzamides and Their Esters Inhibit Acetylcholinesterase and Butyrylcholinesterase” (Biomolecules, 2019).
Where two headings read alike, the source gives them in different places.

What was measured:
[1] = molecular target: T1, AChE from electric eel (EeAChE) (Electrophorus electricus, UniProt O42275); assay: Inhibition of AChE, modified Ellman's spectrophotometric method; format: biochemical, electric eel (Electrophorus electricus L.); conditions: for Selectivity AChE/BuChE: SI = IC50 for AChE/IC50 for BuChE, SI lower than 1 means selectivity for AChE
T1 construct: Acetylcholinesterase was obtained from electric eel (Electrophorus electricus L.); purchased Sigma-Aldrich (Prague, Czech Republic); host or cells: electric eel (natural source)
T1 sequence (O42275 24-633): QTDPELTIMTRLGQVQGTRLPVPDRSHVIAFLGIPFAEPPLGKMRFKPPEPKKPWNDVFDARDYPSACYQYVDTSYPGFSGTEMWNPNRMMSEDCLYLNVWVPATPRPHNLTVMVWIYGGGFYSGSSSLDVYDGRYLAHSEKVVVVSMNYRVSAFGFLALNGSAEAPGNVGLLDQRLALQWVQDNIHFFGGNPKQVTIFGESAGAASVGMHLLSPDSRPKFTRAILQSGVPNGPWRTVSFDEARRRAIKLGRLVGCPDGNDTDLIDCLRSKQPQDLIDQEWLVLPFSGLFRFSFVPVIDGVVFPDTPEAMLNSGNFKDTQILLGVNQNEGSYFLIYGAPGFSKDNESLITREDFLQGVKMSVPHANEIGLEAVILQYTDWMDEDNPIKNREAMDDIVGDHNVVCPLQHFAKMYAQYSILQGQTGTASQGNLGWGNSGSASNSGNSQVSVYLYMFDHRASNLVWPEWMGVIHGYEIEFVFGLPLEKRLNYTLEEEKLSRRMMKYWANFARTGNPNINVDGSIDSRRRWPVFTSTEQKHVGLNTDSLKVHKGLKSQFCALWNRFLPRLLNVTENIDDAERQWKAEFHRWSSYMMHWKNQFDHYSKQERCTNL
Method: (§1) The IC50 values were determined using the spectrophotometric Ellman’s method modified according to Zdražilová et al., which is a simple, rapid and direct method to determine the SH and -S-S- group content in proteins. This method is widely used for the screening of the efficiency of cholinesterases inhibitors. The enzymatic activity is measured indirectly by quantifying the concentration of the 5-thio-2-nitrobenzoic acid ion formed in the reaction between the thiol reagent 5,5′-dithio-bis(2-nitrobenzoic acid) and thiocholine, a product of substrate hydrolysis (i.e., acetylthiocholine; ATCH) by cholinesterases.
(§2) The enzyme activity in final reaction mixture (2000 µL) was 0.2 U/mL, concentration of acetylthiocholine (or butyrylthiocholine, BTCH) 40 µM and concentration of 5,5′-dithio-bis(2-nitrobenzoic acid) 0.1 mM for all reactions. The tested compounds were dissolved in DMSO and then diluted in demineralized water to the concentration of 1 µM. […] All measurements were carried in triplicate and the average values of reaction rate (v0-uninhibited reaction, vi-inhibited reaction) were used for construction of the dependence v0/vi vs. concentration of inhibitor. From obtained equation of regression curve, the value of IC50 was calculated (based on the definition of IC50).
(§3) Acetylcholinesterase was obtained from electric eel (Electrophorus electricus L.) and butyrylcholinesterase was from an equine serum.
(§4) Thirty-six benzamides 1–4l were evaluated as potential inhibitors of AChE from electric eel (EeAChE) and BuChE from equine serum (EqBuChE) using Ellman’s spectrophotometric method modified according to Zdražilová et al.. Their efficacy is expressed as IC50, i.e., the concentration required for 50% inhibition of the enzymatic activity. Based on inhibition of both cholinesterases, we calculated selectivity indexes (SI) as the ratio of IC50 value for AChE/IC50 value for BuChE to express the selectivity quantitatively (Table 1).

[2] = molecular target: T2, BuChE from equine serum (EqBuChE) (Equus caballus, UniProt P81908); assay: Inhibition of BuChE, modified Ellman's spectrophotometric method; format: biochemical; conditions: mean ± SD, n = three experiments
T2 construct: butyrylcholinesterase was from an equine serum; purchased Sigma-Aldrich (Prague, Czech Republic); host or cells: equine serum (natural source)
T2 sequence (P81908 whole entry): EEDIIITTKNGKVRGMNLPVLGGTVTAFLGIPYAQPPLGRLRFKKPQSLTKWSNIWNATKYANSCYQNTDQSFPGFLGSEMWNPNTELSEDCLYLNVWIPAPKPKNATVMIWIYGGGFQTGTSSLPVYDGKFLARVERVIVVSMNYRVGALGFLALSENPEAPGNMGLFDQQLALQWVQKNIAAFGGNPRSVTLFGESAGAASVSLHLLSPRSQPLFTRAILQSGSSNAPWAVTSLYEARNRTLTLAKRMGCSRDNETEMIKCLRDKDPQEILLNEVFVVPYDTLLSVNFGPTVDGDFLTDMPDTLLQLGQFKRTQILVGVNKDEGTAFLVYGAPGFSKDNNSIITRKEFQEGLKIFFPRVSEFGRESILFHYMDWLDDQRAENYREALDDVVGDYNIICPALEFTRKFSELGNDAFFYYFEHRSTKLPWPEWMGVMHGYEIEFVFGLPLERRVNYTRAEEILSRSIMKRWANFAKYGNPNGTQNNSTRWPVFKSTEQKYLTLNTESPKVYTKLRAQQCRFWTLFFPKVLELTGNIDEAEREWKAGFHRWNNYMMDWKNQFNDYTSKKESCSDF
Method: as §1, §2, §3, §4

[3] = mean ± SD, n = three experiments, read-out: IC50 (EeAChE)

Compound	IC50 [1] [µM]	Selectivity AChE/BuChE [1]	IC50 ([2]; IC50 (EqBuChE)) [µM]	IC50 [1, 3] [µM]	IC50 ([2]; read-out: IC50 (EqBuChE)) [µM]
O=C(Nc1cccc(C(F)(F)F)c1)c1ccc(Cl)cc1O [Compound 3j]	68.3 ± 3.78	0.42	163 ± 11.7		
O=C(Nc1cccc(Br)c1)c1cc(Br)ccc1O [Compound 4f]	69.7 ± 9.97	0.48	146 ± 3.53		
O=C(Nc1cc(Cl)c(Cl)c(Cl)c1)c1cc(Br)ccc1O [Compound 4e, 5-Bromo-N-(3,4,5-trichlorophenyl)-2-hydroxybenzamide]		0.30		42.1 ± 2.41	140 ± 6.2
O=C(Nc1cccc(Cl)c1)c1cc(Cl)ccc1O [Compound 2a]		0.26		59.5 ± 3.8	228 ± 11.3
O=C(Nc1ccc(Cl)cc1)c1cc(Cl)ccc1O [Compound 2b]	76.5 ± 2.17	0.45	170 ± 3.09		
O=C(Nc1cccc(F)c1)c1ccc(Cl)cc1O [Compound 3h]	60.8 ± 1.74	0.42	146 ± 4.07		
O=C(Nc1ccc(Cl)c(Cl)c1)c1cc(Br)ccc1O [Compound 4c]		0.50		60.8 ± 3.65	123 ± 7.2
O=C(Nc1cccc(Cl)c1)c1cc(Br)ccc1O [Compound 4a]	62 ± 6.48	0.46	134 ± 1.63		
O=C(Nc1ccc(C(F)(F)F)cc1)c1ccc(Cl)cc1O [Compound 3k, 4-chloro-2-hydroxy-N-[4-(trifluoromethyl)phenyl]benzamide]	60.3 ± 2.39	0.30	200 ± 2.02		
O=C(Nc1cccc(F)c1)c1cc(Cl)ccc1O [Compound 2h]	58.6 ± 3.98	0.38	154 ± 8.38		
O=C(Nc1cccc(Br)c1)c1cc(Cl)ccc1O [Compound 2f]	50.03 ± 0.15	0.35	141 ± 1.13		
O=C(Nc1cc(Cl)cc(Cl)c1)c1cc(Cl)ccc1O [Compound 2d, 5-Chloro-N-(3,5-dichlorophenyl)-2-hydroxybenzamide]		0.41		46.2 ± 0.63	112 ± 7.98
O=C(Nc1ccc(F)cc1)c1cc(Br)ccc1O [Compound 4i]	61.2 ± 1.08	0.45	137 ± 1.47		
O=C(Nc1ccc(F)cc1)c1cc(Cl)ccc1O [Compound 2i]	48.3 ± 8.9	0.36	133 ± 15.8		
O=C(Nc1ccc(Cl)cc1)c1ccc(Cl)cc1O [Compound 3b]	56.2 ± 3.23	0.37	152 ± 3.13		
O=C(Nc1ccc(Br)cc1)c1ccc(Cl)cc1O [Compound 3g]	58.3 ± 1.57	0.34	174 ± 4.02		
O=C1c2ccc(Cl)cc2OP(=S)(c2ccccc2)N1c1ccc(C(F)(F)F)cc1 (racemic) [Compound 5e, (RS)-7-Chloro-2-phenyl-3-[4-(trifluoromethyl)phenyl]-3-hydrobenzo[e][1,3,2]oxazaphosphinin-4-one 2-sulfide]		0.37		63.5 ± 1.41	170 ± 13.6
O=C(Nc1cccc(F)c1)c1cc(Br)ccc1O [Compound 4h]	54.4 ± 0.73	0.46	119 ± 2.53		
O=C1c2ccc(Cl)cc2OP(=O)(c2ccccc2)N1c1ccc(C(F)(F)F)cc1 (racemic) [Compound 5d, (RS)-7-Chloro-2-phenyl-3-[4-(trifluoromethyl)phenyl]-3-hydrobenzo[e][1,3,2]oxazaphosphinin-4-one 2-oxide]		1.93		48.1 ± 1.7	25 ± 0.3

Compound	IC50 [1] [µM]	Selectivity AChE/BuChE [1]	IC50 ([2]; IC50 (EqBuChE)) [µM]	IC50 [1, 3] [µM]	IC50 ([2]; read-out: IC50 (EqBuChE)) [µM]
O=C(Nc1cc(C(F)(F)F)cc(C(F)(F)F)c1)c1cc(Cl)ccc1O [Compound 2l]		0.78		50.2 ± 0.88	64.4 ± 1.34
O=C(Nc1cc(Cl)cc(Cl)c1)c1cc(Br)ccc1O [Compound 4d, 5-Bromo-N-(3,5-dichlorophenyl)-2-hydroxybenzamide]		0.24		33.1 ± 0.47	135.9 ± 0.14
O=C(Nc1cc(C(F)(F)F)cc(C(F)(F)F)c1)c1cc(Br)ccc1O [Compound 4l]	48.5 ± 1.07	0.91	53.5 ± 3.2		
O=C(Nc1ccccc1)c1ccccc1O [Compound 1, salicylanilide]		0.24		49.7 ± 3.73	206 ± 12.1
O=C(Nc1ccc(Cl)c(Cl)c1)c1cc(Cl)ccc1O [Compound 2c]		0.33		60.8 ± 6.88	186 ± 15.7
O=C(Nc1cc(C(F)(F)F)cc(C(F)(F)F)c1)c1ccc(Cl)cc1O [Compound 3l]		0.36		54.7 ± 2.05	150.5 ± 0.87
O=C(Nc1ccc(Cl)c(Cl)c1)c1ccc(Cl)cc1O [Compound 3c]		0.46		46.3 ± 0.56	100 ± 1.15
O=C(Nc1ccc(Br)cc1)c1cc(Br)ccc1O [Compound 4g]		0.63		70.3 ± 2.85	112 ± 1.79
O=C(Nc1ccc(C(F)(F)F)cc1)c1cc(Br)ccc1O [Compound 4k]	44.8 ± 3.44	0.33	134.8 ± 0.86		
O=C(Nc1cccc(C(F)(F)F)c1)c1cc(Br)ccc1O [Compound 4j, 5-bromo-2-hydroxy-N-[3-(trifluoromethyl)phenyl]benzamide]	42.67 ± 0.18	0.36	117 ± 2.23		
O=C(Nc1cccc(Br)c1)c1ccc(Cl)cc1O [Compound 3f]		0.36		60.03 ± 0.42	168 ± 2.06
O=C(Nc1cccc(C(F)(F)F)c1)c1cc(Cl)ccc1O [Compound 2j]	54.41 ± 0.25	0.45	120 ± 3.02		
O=C(Nc1ccc(Br)cc1)c1cc(Cl)ccc1O [Compound 2g]		0.49		58.2 ± 4.87	119 ± 6.65
O=C(Nc1cc(Cl)cc(Cl)c1)c1ccc(Cl)cc1O [Compound 3d, 4-Chloro-N-(3,5-dichlorophenyl)-2-hydroxybenzamide]		0.36		50.15 ± 0.26	141 ± 2.8
O=C(Nc1cc(Cl)c(Cl)c(Cl)c1)c1cc(Cl)ccc1O [Compound 2e, 5-Chloro-N-(3,4,5-trichlorophenyl)-2-hydroxybenzamide]		0.50		51.06 ± 0.49	102.7 ± 0.97
O=C(Nc1cc(Cl)c(Cl)c(Cl)c1)c1ccc(Cl)cc1O [Compound 3e, 4-Chloro-N-(3,4,5-trichlorophenyl)-2-hydroxybenzamide]		0.44		57.8 ± 4.05	132 ± 4.31
O=C(Nc1ccc(Cl)cc1)c1cc(Br)ccc1O [Compound 4b]	85.8 ± 6.1	0.66	131 ± 3.99		
O=C(Nc1cccc(Cl)c1)c1ccc(Cl)cc1O [Compound 3a]	58.1 ± 1.2	0.43	134.3 ± 0.24		
O=C(Nc1ccc(F)cc1)c1ccc(Cl)cc1O [Compound 3i]	62.8 ± 1.53	0.41	152 ± 7.58		
